From a melting point compilation (Tetko et al.; mined from patent text by program, amines drawn as free bases though some values may be those of a salt) come the findings set out here.

For orientation: melting point means the temperature of the solid-liquid transition. Molecule `N#CC=C1CCc2ccc3ncoc3c21` registered a melting point of 166 to 168 °C.

In turn, `CCCCc1nn(-c2cc([N+](=O)[O-])ccc2Cl)c(C(=O)O)c1Cc1ccc(Br)cc1F` displayed a melting point greater than 55 °C.

Molecule `Cc1csc(C(=O)CCc2ccccc2)c1OCCN(C)C` returned a melting point of 106 to 108 °C.

`CCCCC(Cc1ccc(OCCCN(C)C(=O)c2ccc(-c3ccccn3)cc2)cc1)C(=O)O` (centres undefined) had a melting point of 110 to 112 °C.

In turn, `CC(=O)OC1CSC(Oc2cncc(-c3c(C)nn(C)c3C)c2)C(OC(C)=O)C1OC(C)=O` (centres undefined) displayed a melting point of 166 °C.

Molecule `CCC(C)(C)c1cc(C(C)(C)CC)c2c(c1)C1(O)C(=O)c3ccccc3C1(O)O2` (centres undefined) returned a melting point of 195 to 222 °C.

`COC(=O)COc1ccc(SCc2cc(-c3ccc(Cl)cc3)on2)c2c1CCCO2`: the melting point fell in the range of 131 to 133 °C.

In the case of `c1ccc(COc2cccc(-n3cnnn3)c2)cc1`, the melting point lay within 85 to 86 °C.

Molecule `O=C1CCN(Cc2ccccc2)C(=O)C1=C1SCCS1` returned a melting point of 148 to 150 °C.

In the case of `O=c1c2c(F)cccc2nc(CSc2ncnc3[nH]cnc23)n1-c1ccccc1Cl`, the melting point was 223 to 224 °C.

As to `COc1nc(C)cnc1NS(=O)(=O)c1cccnc1-c1ccc(CCC(=O)O)cc1`, the melting point lay in the range of 166 to 168 °C.

`O=C1CC2(CN1)CC(=O)c1cc(Cl)cc(Cl)c12` (centres undefined) showed a melting point of 226 to 228 °C.

Molecule `CC1=Nc2ccccc2N(Cc2ccccc2)C(=O)C1Cc1ccccc1` (centres undefined) returned a melting point of 140 to 141 °C.

The molecule `Cc1cc(C)cc(C(=O)N2CCN(C(=O)CNC3CCN(C(=O)c4ccccc4)CC3)C(c3ccc(Cl)c(Cl)c3)C2)c1` (racemic) had a melting point of 94 to 96 °C.

Turning to `Nc1nc2c(c(Nc3cccc(F)c3)n1)-c1ccccc1C2`, the melting point was 199 to 200 °C.

On to `N#Cc1ccc(CO)cc1F`, for which the melting point lay within 70 to 72 °C.

Molecule `CCOC(=O)c1ccc(NC(=O)CC(c2ccc(Cl)cc2)c2ccc(Cl)cc2)cc1` had a melting point of 152 to 155 °C.

For the molecule `COCc1cc(O)cc2cc(-c3ccc(O)cc3)oc12`, the melting point was 186 to 188 °C.

The molecule `CC1CCc2cc(C(O)C(C)N3CCC(n4c(=O)[nH]c5ccccc54)CC3)ccc2S1` (centres undefined) had a melting point of 237 to 239 °C.

As for `O=C(O)C(=NO)C(c1ccc(OCc2ccc3cc(F)ccc3n2)cc1)c1ccc(OCc2ccc3cc(F)ccc3n2)cc1`, the melting point is 107 °C.

`Cc1nc(N2CCCC2)c2ccc(Br)cc2n1` registered a melting point of 120 to 122 °C.

`COc1ccccc1N1CCN(c2nc3c(cc2F)c(=O)c(C(=O)O)cn3-c2ccc(F)cc2)CC1` showed a melting point of 272 to 273 °C.

Molecule `O=S1(=O)N=C(c2ccccc2)c2ccccc21` returned a melting point of 118 °C.

As to `O=C(NC(Oc1ccc(Cl)cc1)C(Cl)(Cl)Cl)c1ccccc1O` (centres undefined), the melting point was in the range of 116 to 117 °C.

In the case of `CC(C)(c1ccc(N)cc1)c1ccc(N)cc1`, the melting point lay within 130 to 132 °C.

In turn, `COc1ccc(C)cc1NC(=O)Nc1ccc(N2CCN(C(=O)Nc3ccc(OCCO)cc3C(F)(F)F)CC2)c(C)c1` displayed a melting point of 225 to 228 °C.

Molecule `CC(C)(C)c1cc(CCc2n[nH]c(=S)o2)cc(C(C)(C)C)c1O` displayed a melting point of 164 to 166 °C.

In turn, `FC(F)C(F)(F)Sc1nc(-c2ccccc2)c(-c2ccccc2)n1C1CCCO1` (centres undefined) showed a melting point of 145 to 146 °C.

In the case of `COC(=O)c1cccn1-c1cc2[nH]c(=O)c(=O)n(C3CCCCC3)c2cc1[N+](=O)[O-]`, the melting point was 211 to 212 °C.

`C=CC(=O)OCCN(CCOC(=O)C=C)c1ccc(N=Nc2ccc([N+](=O)[O-])cc2)cc1` had a melting point of 91 to 93 °C.

Turning to `CC(=O)OCC(CCn1cnc2nc(N)ncc21)COC(C)=O`, the melting point lay in the range of 137 to 139 °C.

For `Cc1ccc(-c2cccn2-c2ccc(S(C)(=O)=O)cc2)cc1`, the melting point was 186 to 187 °C.

Molecule `Clc1ccc(N2CCN(CCCc3c4c(nn3-c3ccccc3)CCCC4)CC2)cc1` came in with a melting point of 127 to 129 °C.

`Clc1ccc(-c2nc3ccccc3nc2Cl)c(Cl)c1` came in with a melting point of 140 to 150 °C.

`Cc1cnc2c(c1)C(=O)N(C(C)C)C2=O`: the melting point fell in the range of 127 to 128 °C.

In the case of `CC(C)(C)OC(=O)N1CCN(S(=O)(=O)c2ccc(N)c(Cl)c2)CC1`, the melting point was 243 to 244 °C.

Turning to `CCOC(=O)c1cn(C(C)c2c(F)cccc2F)nn1` (centres undefined), the melting point is 118 to 121 °C.

`CCCCc1nn(-c2ccc(C(F)(F)F)cn2)cc1CCCOc1cc(CC(=O)O)ccc1OCC`: the melting point is 105 to 106 °C.

The molecule `ONCc1ccc2c(c1)Cc1ccccc1-2` showed a melting point of 150 to 152 °C.

Molecule `CN(C(=O)NCCO)C1c2ccccc2Oc2ccccc21` had a melting point of 130 to 132 °C.

For `COc1cc2c(cc1OC)CC(=O)N(CCCI)C=C2`, the melting point lay within 132 to 134 °C.

For `CC(=O)c1ccc(Oc2ccc(C(C)=O)cc2)cc1`, the melting point is 102 °C.

The molecule `COc1cc2cnnc(N3CCCC(CO)C3)c2cc1OC` (centres undefined) had a melting point of 162 to 165 °C.

`Cc1nc(-c2ccc3c(c2)CCCC3)co1` had a melting point of 53 to 54 °C.

In the case of `CS(=O)(=O)c1ccc(C(CC2CCCC2)C(=O)Nc2ccncn2)cc1[N+](=O)[O-]` (centres undefined), the melting point fell in the range of 91 to 95 °C.

As for `Cc1ccc(OC(=O)CCC(=O)OOC(C)(C)C)cc1`, the melting point lay in the range of 72 to 77 °C.

Take `CCCOc1ccc(-c2ccc(N)nn2)cc1OC`: the melting point turned out to be 147 °C.

Turning to `CN1CCN(CCn2c3ccccc3c(=O)c3ccccc32)CC1`, the melting point lay within 156 to 157 °C.

Take `Cc1cc(C)c2nc(C)c(C(=O)O)c(-c3ccccc3Cl)c2c1`: the melting point was 278 to 279 °C.

Take `CCOC(=O)c1[nH]c2cc3c(sc4ccccc43)c(C)c2c1C`: the melting point is 191 to 193 °C.

Molecule `CCSc1cc(SCC)c2ccc3c(SCC)cc(SCC)c4ccc1c2c43` came in with a melting point of 180 °C.

In turn, `O=C(Nc1ccc(Oc2cccc(Cl)c2)c(Cl)c1)c1ccccn1` returned a melting point of 91.5 to 93.5 °C.

Turning to `FC(F)(F)Sc1ccc2c(c1)C(=C1CCN(CC3CC3)CC1)c1ccccc1C=C2`, the melting point was in the range of 143 to 144 °C.

As for `CON=C(c1ccc(Cl)cc1)C(CNOC)CN1CCN(c2ccccn2)CC1` (centres undefined), the melting point lay within 106 to 109 °C.

`c1ccc2cc(N3CCN(Cc4n[nH]c5ccccc45)CC3)ncc2c1` yielded a melting point of 214 to 215 °C.

In the case of `CC(C)(C)OC(=O)COc1ccc2sc(-c3ccccn3)nc(=O)c2c1`, the melting point fell in the range of 183 to 184 °C.

For `COC(=O)c1c(C(=O)NC(C)(C(N)=O)C(C)C)cccc1[N+](=O)[O-]` (centres undefined), the melting point was 100 to 107 °C.

The molecule `CCN(CC)C(=O)c1c(-c2ccccc2)ccc2cc(-c3ccc(OC)cc3)ccc12` registered a melting point of 147 to 148 °C.

As for `CC(=O)N1c2ccccc2-c2c([N+](=O)[O-])cnn2C1c1ccccc1` (centres undefined), the melting point is 156 to 157 °C.

Regarding `CCOc1cc(C)cc(C)c1C`, the melting point is 93 to 95 °C.

Take `CC(C)Cn1cnc2c(O)nc3ccccc3c21`: the melting point was greater than 300 °C.

Molecule `COCC(=O)c1cnc2c(OC)cccc2c1Nc1ccccc1C` displayed a melting point of 122 to 123 °C.

As for `CNCC(=O)NCC1Cc2cc(C)c3[nH]c(=O)ccc3c2O1` (centres undefined), the melting point lay in the range of 188 to 191 °C.

Regarding `CC(=O)Oc1c(C)c(C)nc2ccccc12`, the melting point was 93 to 94 °C.

On to `COc1ccc(C=CC(=O)CC(=O)C=Cc2ccc(OC)c(OC)c2)cc1OC`, for which the melting point lay in the range of 129 to 131 °C.

Regarding `C=CC(=O)C(CC1CCOCC1)c1ccc(S(=O)(=O)C2CC2)cc1` (centres undefined), the melting point is 92 to 93 °C.

As for `CC(C)c1nn(-c2ccc(C(F)(F)F)cn2)cc1COc1cc(C=O)n(C)n1`, the melting point fell in the range of 112 to 113 °C.

On to `CC(C)(C)c1cc(CC2CO2)cc(C(C)(C)C)c1O` (centres undefined), for which the melting point is 86 to 87 °C.

With `Cc1cc(Cl)ccc1NC(=O)c1cccc([N+](=O)[O-])c1C(=O)NC(C)C`, the melting point fell in the range of 202 to 204 °C.

Take `NC1([C@@H]2CCN(c3cc4c(cc3F)c(=O)c(C(=O)O)cn4[C@@H]3C[C@@H]3F)C2)CC1`: the melting point fell in the range of 240 to 242 °C.

`CC(C)(C)OC(=O)N1CCC[C@@H]1[C@@H](NC(=O)c1ccc(Cl)cc1)NC(=NC#N)Nc1cccnc1` yielded a melting point of 184 to 185 °C.

Molecule `COc1nc(C)c(C)nc1NC(=O)N1CCN(c2ccccc2C(C)C)CC1` had a melting point of 165 to 167 °C.

Molecule `COc1cc(N)c(Cl)cc1C(=O)NCCN1CCC2(CC1)C(=O)NCN2c1ccccc1` had a melting point of 247 °C.

As for `COC(=O)[C@@H](NC(=O)OC(C)(C)C)[C@@H](S)c1ccccc1`, the melting point fell in the range of 76 to 77 °C.

On to `CNCC(=O)Nc1ccc(C2=NN(C(C)=O)C(C)Cc3cc4c(cc32)OCO4)cc1` (centres undefined), for which the melting point lay in the range of 220 to 222 °C.

In turn, `CC(=O)NCC1CC(c2ccc(Br)cc2)=NO1` (centres undefined) displayed a melting point of 198 to 199 °C.

For `CN(C)S(=O)(=O)N[Si](C)(C)C`, the melting point is 83 to 86 °C.

Regarding `Cc1cc2c(cc1-c1cccc(C#CC(=O)O)c1)C(C)(C)CCC2(C)C`, the melting point fell in the range of 180 to 181 °C.

`CC1(CCC(=O)CCCc2cccc([N+](=O)[O-])c2)C(=O)CCC1=O` showed a melting point of 81 to 83 °C.

`c1ccc(COc2ccc(-c3nc(COc4ccc(CCCCn5ccnc5)cc4)co3)cc2)cc1` registered a melting point of 118 to 120 °C.

For the molecule `C[C@H]1N=C(c2ccccc2F)c2cc([N+](=O)[O-])ccc2NC1=O`, the melting point turned out to be 120 °C.

Regarding `NC(=O)C1COc2c(F)cccc2O1` (centres undefined), the melting point was 167 °C.

Take `COc1ccc(-c2ccc(-c3ccccc3Cl)n2Cc2cccc(N)n2)cc1`: the melting point fell in the range of 147 to 148 °C.

The molecule `O=[N+]([O-])c1nccn1C1OC(CO)C(O)C1O` (centres undefined) gave a melting point of 160 °C.

`O=C(Nc1ccc(C(F)(F)F)cc1)Nc1ccc(S(=O)(=O)Nc2ccc(Cl)cc2)cc1` had a melting point of 252 to 257 °C.

`OCc1ccc(-c2cc3nccnc3[nH]2)cc1` came in with a melting point of 284 to 285 °C.

`Oc1c(C(Nc2ccc(F)cn2)c2ccccn2)ccc2cccnc12` (centres undefined): the melting point fell in the range of 165 to 168 °C.

As to `COC(=O)c1ccc2c(c1)C(=O)C(CC=O)C2` (racemic), the melting point stood at 92 °C.

`NC(=O)c1c(C(=O)O)cccc1[N+](=O)[O-]`: the melting point is 188 °C.
